Read-outs that look alike come from different tables or passages of the source.
What was measured:
[1] = Musculoskeletal adverse events, study A4141001
[2] = tested on: STAM model of non-alcoholic steatohepatitis (NASH); conditions: for Sirius Red positive area (mean ± SD) / NAFLD Activity score, NAS (mean ± SD) / Fasting blood glucose (mean ± SD) / Plasma insulin (mean ± SD) / Liver hydroxyl-proline (mean ± SD) / Liver triglyceride (mean ± SD) / Non-fasting blood glucose (mean ± SD) / Plasma ALT (mean ± SD) / Plasma AST (mean ± SD) / Plasma ketone body (mean ± SD): STAM mice; for Fasting blood glucose (mean ± SD) / Plasma insulin (mean ± SD): Day 18, 8 hours of fasting; for Liver hydroxyl-proline (mean ± SD) / Liver triglyceride (mean ± SD) / Non-fasting blood glucose (mean ± SD) / Plasma ALT (mean ± SD) / Plasma AST (mean ± SD) / Plasma ketone body (mean ± SD): termination (Day 21)
Method: Telmisartan (Micardis®) was purchased from Boehringer Ingelheim GmbH (Germany) and dissolved in pure water.
Telmisartan was administered at a dose of 10 mg/kg once daily.
Measurement of whole blood and plasma biochemistry: Eight-hour fasting blood samples were collected from facial vein at 3 days prior to termination.
Eight-hour fasting blood glucose was measured in whole blood using Life Check (EIDIA Co. Ltd., Japan). For plasma biochemistry, eight-hour fasting blood was collected in polypropylene tubes with anticoagulant (Novo-Heparin, Mochida Pharmaceutical, Japan) and centrifuged at 1,000×g for 15 minutes at 4° C. The supernatant was collected and stored at −80° C. until use. Plasma insulin levels were quantified by Ultra Sensitive Mouse Insulin ELISA kit (Morinaga Institute of Biological Science, Inc., Japan).
On the day of termination, non-fasting blood glucose was measured in whole blood using Life Check. For plasma biochemistry, non-fasting blood was collected in polypropylene tubes with anticoagulant (Novo-Heparin) and centrifuged at 1,000×g for 15 minutes at 4° C. The supernatant was collected and stored at −80° C. until use. Plasma ALT, AST, ALP, GGT, BUN, creatinine and total bilirubin levels were measured by FUJI DRI-CHEM 7000 (Fujifilm Corporation, Japan). Plasma ketone body levels were quantified by EnzyChrom™ Ketone Body Assay Kit (BioAssay Systems, USA). […]
Histological analyses: For HE staining, sections were cut from paraffin blocks of liver tissue prefixed in Bouin's solution and stained with Lillie-Mayer's Hematoxylin (Muto Pure Chemicals Co., Ltd., Japan) and eosin solution (Wako Pure Chemical Industries). […] To visualize collagen deposition, Bouin's fixed liver sections were stained using picro-Sirius red solution (Waldeck, Germany). […]
Statistical analyses were performed using Bonferroni Multiple Comparison Test on GraphPad Prism 6 (GraphPad Software Inc., USA). […] Results were expressed as mean±SD.
The viability, clinical signs and behavior were monitored daily. Body weight was recorded before the treatment. […] The animals were sacrificed by exsanguination through direct cardiac puncture under isoflurane anesthesia (Pfizer Inc.) at 9 weeks of age.

[3] = study A4141001, patient type IIa
[4] = study A4141001, patient type IIa + IIb
[5] = study A4141001, patient type IIb
[6] = gemcabene 30 mg/kg PO QD, n = 8
[7] = gemcabene 100 mg/kg PO QD, n = 8
[8] = gemcabene 300 mg/kg PO QD, n = 8

## CC(C)(CCCCOCCCCC(C)(C)C(=O)O)C(=O)O [Gemcabene, 6,6′-oxybis(2,2-dimethylhexanoic acid)]
[1]; [3]
  % of patients experiencing a musculoskeletal adverse event: 0.0%
  No = number of muscle skeletal adverse events: 0
[1]; [4]
  % of patients experiencing a musculoskeletal adverse event: 0.0%
  No = number of muscle skeletal adverse events: 0
[1]; [5]
  % of patients experiencing a musculoskeletal adverse event: 0.0%
  No = number of muscle skeletal adverse events: 0
[2]; gemcabene 30 mg/kg PO QD 6-9 wks
  Sirius Red positive area (mean ± SD): 0.56 ± 0.18%
[2]; gemcabene 30 mg/kg PO QD 6-9 wks, n = 8
  NAFLD Activity score, NAS (mean ± SD): 3.4 ± 1.1
[2]; gemcabene 30 mg/kg PO QD
  Fasting blood glucose (mean ± SD): 437 ± 42 mg/dL
  Plasma insulin (mean ± SD): 0.13 ± 0.04 ng/mL
  Liver hydroxyl-proline (mean ± SD): 0.66 ± 0.12 μg/mg total protein
  Liver triglyceride (mean ± SD): 49.2 ± 8.6 mg/g liver
  Non-fasting blood glucose (mean ± SD): 607 ± 48 mg/dL
  Plasma ALT (mean ± SD): 41 ± 15 U/L
  Plasma AST (mean ± SD): 100 ± 44 U/L
  Plasma ketone body (mean ± SD): 9.43 ± 2.35 mM
[2]; gemcabene 100 mg/kg PO QD 6-9 wks
  Sirius Red positive area (mean ± SD): 0.53 ± 0.18%
[2]; gemcabene 100 mg/kg PO QD 6-9 wks, n = 8
  NAFLD Activity score, NAS (mean ± SD): 3.6 ± 1.4
[2]; gemcabene 100 mg/kg PO QD
  Fasting blood glucose (mean ± SD): 441 ± 46 mg/dL
  Plasma insulin (mean ± SD): 0.17 ± 0.06 ng/mL
  Liver hydroxyl-proline (mean ± SD): 0.74 ± 0.38 μg/mg total protein
  Liver triglyceride (mean ± SD): 58.4 ± 14.5 mg/g liver
  Non-fasting blood glucose (mean ± SD): 653 ± 53 mg/dL
  Plasma ALT (mean ± SD): 27 ± 7 U/L
  Plasma AST (mean ± SD): 88 ± 32 U/L
  Plasma ketone body (mean ± SD): 5.75 ± 3.24 mM
[2]; gemcabene 300 mg/kg PO QD 6-9 wks
  Sirius Red positive area (mean ± SD): 0.59 ± 0.16%
[2]; gemcabene 300 mg/kg PO QD 6-9 wks, n = 8
  NAFLD Activity score, NAS (mean ± SD): 2.5 ± 0.8
[2]; gemcabene 300 mg/kg PO QD
  Fasting blood glucose (mean ± SD): 407 ± 15 mg/dL
  Plasma insulin (mean ± SD): 0.13 ± 0.04 ng/mL
  Liver hydroxyl-proline (mean ± SD): 0.70 ± 0.10 μg/mg total protein
  Liver triglyceride (mean ± SD): 56.0 ± 13.9 mg/g liver
  Non-fasting blood glucose (mean ± SD): 638 ± 63 mg/dL
  Plasma ALT (mean ± SD): 32 ± 14 U/L
  Plasma AST (mean ± SD): 147 ± 122 U/L
  Plasma ketone body (mean ± SD): 5.68 ± 3.08 mM
[2]; [6]
  number of mice with Hepatocyte ballooning score 0 (None): 4
  number of mice with Hepatocyte ballooning score 1 (Few balloon cells): 2
  number of mice with Hepatocyte ballooning score 2 (Many cells/prominent ballooning): 2
  number of mice with Lobular inflammation score 0 (No foci): 1
  number of mice with Lobular inflammation score 1 (<2 foci/200x): 2
  number of mice with Lobular inflammation score 2 (2-4 foci/200x): 4
  number of mice with Lobular inflammation score 3 (>4 foci/200x): 1
  number of mice with Steatosis score 1 (5-33%): 8
[2]; [7]
  number of mice with Hepatocyte ballooning score 0 (None): 1
  number of mice with Hepatocyte ballooning score 1 (Few balloon cells): 4
  number of mice with Hepatocyte ballooning score 2 (Many cells/prominent ballooning): 3
  number of mice with Lobular inflammation score 0 (No foci): 2
  number of mice with Lobular inflammation score 1 (<2 foci/200x): 1
  number of mice with Lobular inflammation score 2 (2-4 foci/200x): 5
  number of mice with Steatosis score 1 (5-33%): 8
[2]; [8]
  number of mice with Hepatocyte ballooning score 0 (None): 4
  number of mice with Hepatocyte ballooning score 1 (Few balloon cells): 3
  number of mice with Hepatocyte ballooning score 2 (Many cells/prominent ballooning): 1
  number of mice with Lobular inflammation score 0 (No foci): 2
  number of mice with Lobular inflammation score 1 (<2 foci/200x): 2
  number of mice with Lobular inflammation score 2 (2-4 foci/200x): 4
  number of mice with Steatosis score 0 (<5%): 3
  number of mice with Steatosis score 1 (5-33%): 5

Source: patent publication US20170172955A1, “Treatment of Mixed Dyslipidemia” (priority 2015, published 2017)
